Data on nine compounds can be found in patent US10717716B2, “1,3,4-oxadiazole derivative compounds as histone deacetylase 6 inhibitor, and the pharmaceutical composition comprising the same” (Chong Kun Dang Pharmaceutical Corp., priority 2015, dated 2020).

One experiment has as its target T1, human recombinant HDAC6 (Homo sapiens, UniProt Q9UBN7).
T1 construct: purchased Calbiochem 382180
T1 sequence (Q9UBN7 1-1215): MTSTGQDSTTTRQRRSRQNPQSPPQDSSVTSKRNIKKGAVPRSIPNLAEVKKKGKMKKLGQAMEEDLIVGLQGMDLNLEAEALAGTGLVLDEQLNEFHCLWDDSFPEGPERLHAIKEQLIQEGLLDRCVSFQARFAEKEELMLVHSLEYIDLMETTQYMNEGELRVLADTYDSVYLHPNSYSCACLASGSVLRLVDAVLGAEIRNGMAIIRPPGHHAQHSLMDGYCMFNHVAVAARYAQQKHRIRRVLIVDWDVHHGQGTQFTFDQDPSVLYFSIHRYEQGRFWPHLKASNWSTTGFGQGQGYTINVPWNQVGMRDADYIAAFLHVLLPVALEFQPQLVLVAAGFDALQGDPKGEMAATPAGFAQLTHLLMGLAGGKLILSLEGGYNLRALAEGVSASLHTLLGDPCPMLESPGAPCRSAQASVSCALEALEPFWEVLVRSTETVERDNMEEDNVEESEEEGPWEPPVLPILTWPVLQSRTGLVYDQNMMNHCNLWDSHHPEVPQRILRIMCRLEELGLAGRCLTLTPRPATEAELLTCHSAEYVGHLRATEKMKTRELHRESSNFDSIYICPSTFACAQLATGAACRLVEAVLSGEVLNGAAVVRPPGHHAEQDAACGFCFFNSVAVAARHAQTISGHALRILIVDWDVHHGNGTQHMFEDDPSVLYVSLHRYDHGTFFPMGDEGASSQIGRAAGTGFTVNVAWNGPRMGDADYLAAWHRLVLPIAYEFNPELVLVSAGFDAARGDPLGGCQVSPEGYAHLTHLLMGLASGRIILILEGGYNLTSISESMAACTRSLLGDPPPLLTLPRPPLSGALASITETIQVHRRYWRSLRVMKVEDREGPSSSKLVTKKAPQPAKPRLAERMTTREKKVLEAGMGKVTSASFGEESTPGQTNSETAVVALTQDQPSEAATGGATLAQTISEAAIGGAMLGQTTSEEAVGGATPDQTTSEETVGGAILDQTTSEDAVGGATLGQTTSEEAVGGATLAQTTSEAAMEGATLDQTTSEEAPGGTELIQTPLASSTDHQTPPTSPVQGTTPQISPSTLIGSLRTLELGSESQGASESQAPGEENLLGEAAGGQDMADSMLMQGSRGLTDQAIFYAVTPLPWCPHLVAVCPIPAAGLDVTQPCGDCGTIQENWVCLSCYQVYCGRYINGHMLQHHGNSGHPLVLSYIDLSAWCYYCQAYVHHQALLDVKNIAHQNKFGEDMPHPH
Description: HDAC6 enzyme activity inhibition assay (HDAC Fluorimetric Drug Discovery Kit). The experiment is classed as biochemical. As to conditions: for HDAC6 selectivity (fold): HDAC6 over HDAC1; for IC50: human recombinant HDAC6, same protocol as HDAC1, read-out: HDAC6. The essentials:
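Human recombinant HDAC1 or HDAC6 (0.3 μg) reacted with 10 μM Fluor de Lys-SIRT1 substrate and 5-fold compound dilutions for 60 min at 30 °C. Developer II added for 30 min, fluorescence read at Ex 360/Em 460; IC50 calculated from the readings.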

Another experiment concerns the target T2, human recombinant HDAC1 (Homo sapiens, UniProt Q13547).
T2 construct: purchased Enzo Life Science BML-SE456
Description: HDAC1 enzyme activity inhibition assay (HDAC Fluorimetric Drug Discovery Kit). In kind it is biochemical. As to conditions: human recombinant HDAC1, Fluor de Lys substrate 10 μM, 30° C. 60 minutes. The method, then:
In order to examine the HDAC6 selectivity of the compounds of formula I of the present invention by HDAC1 and HDAC6 enzymatic activity inhibition assays, an experiment was performed using a conventional substance as a control.
HDAC enzyme activity was measured using a HDAC Fluorimetric Drug Discovery Kit (BML-AK511, 516, Enzo Life Science). For the HDAC1 enzyme activity test, human recombinant HDAC1 (BML-SE456) was used as an enzyme source, and Fluor de Lys®-“SIRT1 (BNL-KI177) was used as a substrate. A 5-fold dilution of the compound was seeded into a 96-well plate, and then 0.3 μg of the enzyme and 10 μM of the substrate were added to each well of the plate and allowed to react at 30° C. for 60 minutes. Then, Fluor de Lys®-Developer II (BML-KI176) was added thereto and allowed to react for 30 minutes, after which the fluorescence value (Ex 360, Em 460) was measured using a multi-plate reader (Flexstation 3, Molecular Device). The HDAC6 enzyme was tested using human recombinant HDAC6 (382180) (Calbiochem) according to the same protocol as the HDAC1 enzyme activity test method. Based on the resulting values, each IC5, value was calculated using GraphPad Prism4.0 program.

T2 sequence (Q13547 whole entry): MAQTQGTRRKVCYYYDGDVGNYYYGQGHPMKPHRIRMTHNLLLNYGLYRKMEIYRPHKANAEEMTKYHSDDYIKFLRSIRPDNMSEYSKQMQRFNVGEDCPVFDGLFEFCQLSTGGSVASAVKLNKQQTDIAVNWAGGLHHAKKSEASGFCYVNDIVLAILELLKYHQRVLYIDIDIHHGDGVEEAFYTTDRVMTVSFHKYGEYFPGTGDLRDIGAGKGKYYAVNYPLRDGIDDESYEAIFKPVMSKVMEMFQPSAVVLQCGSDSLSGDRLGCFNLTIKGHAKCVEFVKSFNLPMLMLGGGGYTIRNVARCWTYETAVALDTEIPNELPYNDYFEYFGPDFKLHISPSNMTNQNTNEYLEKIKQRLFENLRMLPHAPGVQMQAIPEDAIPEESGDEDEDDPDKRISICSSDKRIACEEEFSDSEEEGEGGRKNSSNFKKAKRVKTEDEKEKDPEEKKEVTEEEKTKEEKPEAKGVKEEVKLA

Regarding `Cn1ncc2ccc(-c3cccc(N(Cc4ccc(-c5nnc(C(F)(F)F)o5)cc4)C(=O)N4CCS(=O)(=O)CC4)c3)cc21` [Compound 21438, N-(3-(1-methyl-1H-indazol-6-yl)phenyl)-N-(4-(5-(trifluoromethyl)-1,3,4-oxadiazol-2-yl)benzyl)thiomorpholine-4-carboxamide 1,1-dioxide], the “HDAC6 selectivity (fold)” value on human recombinant HDAC6 is given as 4 fold. The IC50 worked out at 750 nM on human recombinant HDAC6 and 2700 nM on human recombinant HDAC1.
For `O=C(N1CCS(=O)(=O)CC1)N(Cc1ccc(-c2nnc(C(F)(F)F)o2)cc1)c1cccc(-c2ccccc2)c1` [Compound 21439, N-([1,1′-biphenyl]-3-yl)-N-(4-(5-(trifluoromethyl)-1,3,4-oxadiazol-2-yl)benzyl)thiomorpholine-4-carboxamide 1,1-dioxide] the same measures were 6 fold, 1010 nM and 6110 nM.
For `COc1cccc(N(Cc2ccc(-c3nnc(C(F)(F)F)o3)cc2)C(=O)N2CCS(=O)(=O)CC2)c1` [Compound 21441, N-(3-methoxyphenyl)-N-(4-(5-(trifluoromethyl)-1,3,4-oxadiazol-2-yl)benzyl)thiomorpholine-4-carboxamide 1,1-dioxide] the same measures were 18 fold, 139 nM and 2530 nM.
On the same counts, the results for `Cc1cccc(N(Cc2ccc(-c3nnc(C(F)(F)F)o3)cc2)C(=O)N2CCS(=O)(=O)CC2)c1` [Compound 21442, N-(m-tolyl)-N-(4-(5-(trifluoromethyl)-1,3,4-oxadiazol-2-yl)benzyl)thiomorpholine-4-carboxamide 1,1-dioxide] are 77 fold, 114 nM and 8730 nM.
Consider `CS(=O)(=O)c1ccc(N(Cc2ccc(-c3nnc(C(F)(F)F)o3)cc2)C(=O)N2CCOCC2)cc1` [Compound 21443, N-(4-(methylsulfonyl)phenyl)-N-(4-(5-(trifluoromethyl)-1,3,4-oxadiazol-2-yl)benzyl)morpholine-4-carboxamide], for which, at human recombinant HDAC6, the “HDAC6 selectivity (fold)” value was determined as 20 fold and the IC50 is 366 nM. Besides, the IC50 on human recombinant HDAC1 stood at 7440 nM.
On the same counts, the results for `O=C(N1CCS(=O)(=O)CC1)N(Cc1ccc(-c2nnc(C(F)(F)F)o2)cc1)c1ccc(-c2ccccc2)cc1` [Compound 21485, N-([1,1′-biphenyl]-4-yl)-N-(4-(5-(trifluoromethyl)-1,3,4-oxadiazol-2-yl)benzyl)thiomorpholine-4-carboxamide 1,1-dioxide] are 12 fold, 369 nM and 4420 nM.
For `Cn1ncc2ccc(-c3ccc(N(Cc4ccc(-c5nnc(C(F)(F)F)o5)cc4)C(=O)N4CCS(=O)(=O)CC4)cc3)cc21` [Compound 21487, N-(4-(1-methyl-1H-indazol-6-yl)phenyl)-N-(4-(5-(trifluoromethyl)-1,3,4-oxadiazol-2-yl)benzyl)thiomorpholine-4-carboxamide 1,1-dioxide] the same measures were 6 fold, 344 nM and 1950 nM.
For `O=C(N1CCS(=O)(=O)CC1)N(Cc1ccc(-c2nnc(C(F)(F)F)o2)cc1)c1ccc(-c2cccnc2)cc1` [Compound 21489, N-(4-(pyridin-3-yl)phenyl)-N-(4-(5-(trifluoromethyl)-1,3,4-oxadiazol-2-yl)benzyl)thiomorpholine-4-carboxamide 1,1-dioxide] the same measures were 18 fold, 89 nM and 1650 nM.
As for `O=C(N1CCS(=O)(=O)CC1)N(Cc1ccc(-c2nnc(C(F)(F)F)o2)cc1)c1ccc(-c2ccoc2)cc1` [Compound 21491, N-(4-(furan-3-yl)phenyl)-N-(4-(5-(trifluoromethyl)-1,3,4-oxadiazol-2-yl)benzyl)thiomorpholine-4-carboxamide 1,1-dioxide], on human recombinant HDAC6, the “HDAC6 selectivity (fold)” value was found to be 25 fold and the IC50 came to 157 nM. The IC50 at human recombinant HDAC1 stood at 4040 nM.
